This is an account of results in patent US11226337B2, “Chemoproteomic profiling of protein electrophilic and oxidative post-translational modifications” (Zenagem, LLC, priority 2017, dated 2022).

Assay in all cases: SILAC RP-ABPP
Holding throughout (assay type): cell-based

The target in experiment [1] is T1, SCRN2 Secernin-2 (Q96FV2) (Homo sapiens, UniProt Q96FV2).
T1 construct: shared by both the endogenous and recombinant forms of these proteins; endogenous in cells; host or cells: HEK293T and MDA-MB-231
Conditions: SILAC H/L, HEK293T. How it is done:
(§1) Modifications to this protocol included using isotopically ‘light’ and ‘heavy’ SILAC cells that were also grown to near complete confluence prior to treatment. Isotopically light cells were treated with the non-clickable hydrazine probe (at the same concentration as the probe in ‘enrichment’ experiments) or the probe in the presence of 10-fold excess non-clickable hydrazine probe as a competitor (in ‘competition’ experiments). Isotopically heavy cells were treated with the probe for both types of experiments. These treatments were performed in non-SILAC media. Following treatments, cells were washed with cold PBS to remove the probe-containing media, harvested by scraping, collected by centrifugation (1,400 g, 3 min, 4° C.), washed again by resuspension in cold PBS and frozen as pellets at −80° C. until use.
(§2) The fractionated equimolar mixture of heavy and light soluble proteomes (1-1.5 mg) was diluted to 1 mL in PBS. Click reactions were scaled accordingly (except for biotin-azide) to maintain final concentrations of 0.1 mM TBTA, 1 mM CuSO4, 100 μM biotin-azide (10 mM in DMSO) and 1 mM TCEP. The mixture was vortexed and placed on a rotator at ambient temperature for 1 hour. Sequential addition of and mixture with pre-chilled methanol (MeOH, 2 mL), chloroform (CHCl3, 0.5 mL) and PBS (1 mL) on ice quenched the reaction. The precipitated proteome was centrifuged (5,000 g, 10 min, 4° C.) to fractionate the protein interphase from the organic and aqueous solvent layers. The protein pellet was washed with cold 1:1 MeOH:CHCl3 (3×1 mL), mildly sonicated in cold 4:1 MeOH:CHCl3 (2.5 mL) and pelleted once more by centrifugation (5,000 g, 10 min, 4° C.) to ensure click reagents were efficiently removed.
(§3) Heavy and light parent ion chromatograms associated with successfully identified peptides were extracted and compared using CIMAGE software as previously described^69. At least one ion of a co-eluting heavy-light pair must be accurately identified from a fragmentation event that occurred within the retention time window (±10 min) of parent ion elution. To ensure that the correct pair of peaks is quantified, chromatograms are extracted within a 10 ppm error tolerance of the predicted m/z, the signal-to-noise ratio must be >2.5 and the ‘co-elution correlation score’ and ‘envelope correlation score’ must have R^2 values ≥0.8. In addition, peptides detected as ‘singletons,’ where only the heavy ion of a peptide pair was identified, but for which passed all other filtering parameters, are given a default assigned ratio of ‘20,’ which is defined as any measured ratio that is ≥20.
(§4) To further eliminate false positives and any stochastic variability in the data, protein ratios were then determined by the median peptide ratio derived from three or more unique quantified peptides. Protein ratios that complied with these criteria from a single experiment were then averaged with ratios acquired from ≥3 replicates to provide final values for each type of experiment in both cell lines with both probes. […] Probe targets in HEK293T and MDA-MB-231 cells represent data combined from ≥3 independent biological replicates with each cell type performed with several independent batches of synthesized probes over a period of almost two years.
(§5) Two types of experiments were performed—1) direct enrichment of probe 1-labelled proteins from heavy cells in comparison to light control cells treated with the non-clickable hydrazine (3) at the same concentration as 1 (3 mM for 0.5 h); and 2) competition experiments where both heavy and light cells were treated probe 1, but light cells were also treated with 10× competitor 3 (FIG. 3A)—in two different human cell lines (HEK293T cells and the human breast cancer cell line MDA-MB-231).

Experiment [2] addresses T2, SCRN3 Secernin-3 (Q0VDG4) (Homo sapiens, UniProt Q0VDG4).
T2 construct: shared by both the endogenous and recombinant forms of these proteins; endogenous in cells; host or cells: HEK293T and MDA-MB-231
T2 sequence (Q0VDG4 6-424): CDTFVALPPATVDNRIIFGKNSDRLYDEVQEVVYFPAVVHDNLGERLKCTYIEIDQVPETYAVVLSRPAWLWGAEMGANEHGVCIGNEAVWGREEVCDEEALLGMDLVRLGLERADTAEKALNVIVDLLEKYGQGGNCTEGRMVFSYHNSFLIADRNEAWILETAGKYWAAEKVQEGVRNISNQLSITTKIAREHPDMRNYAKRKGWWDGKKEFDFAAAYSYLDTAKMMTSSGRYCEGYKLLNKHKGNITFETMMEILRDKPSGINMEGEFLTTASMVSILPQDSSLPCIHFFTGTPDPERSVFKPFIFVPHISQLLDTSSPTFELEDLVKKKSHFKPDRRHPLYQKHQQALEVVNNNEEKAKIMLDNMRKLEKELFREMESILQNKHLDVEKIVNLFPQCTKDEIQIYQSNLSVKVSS
Conditions: SILAC H/L, HEK293T. On the procedure:
as §1, §2, §3, §4, §5

Experiment [3] has as its target T3, AMD1 S-adenosylmethionine decarboxylase (P17707) (Homo sapiens, UniProt P17707).
T3 construct: shared by both the endogenous and recombinant forms of these proteins; endogenous in cells; host or cells: HEK293T and MDA-MB-231
T3 sequence (P17707 68-334 limits assumed): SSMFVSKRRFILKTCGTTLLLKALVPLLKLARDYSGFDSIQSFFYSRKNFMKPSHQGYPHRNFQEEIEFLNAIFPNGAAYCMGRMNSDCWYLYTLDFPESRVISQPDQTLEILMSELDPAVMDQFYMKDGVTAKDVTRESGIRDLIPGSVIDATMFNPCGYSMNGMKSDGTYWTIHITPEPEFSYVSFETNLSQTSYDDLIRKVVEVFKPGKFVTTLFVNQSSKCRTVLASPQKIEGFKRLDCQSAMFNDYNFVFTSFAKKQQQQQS
T3 sequence (P17707 1-67 limits assumed): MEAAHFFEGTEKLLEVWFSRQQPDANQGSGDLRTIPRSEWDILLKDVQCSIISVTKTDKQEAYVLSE
The conditions noted are these: SILAC H/L, HEK293T. How it is done:
as §1, §2, §3, §4, §5

A further experiment has as its target T4, LGMN Legumain (Q99538) (Homo sapiens, UniProt Q99538).
T4 construct: shared by both the endogenous and recombinant forms of these proteins; endogenous in cells; host or cells: HEK293T and MDA-MB-231
T4 sequence (Q99538 18-323): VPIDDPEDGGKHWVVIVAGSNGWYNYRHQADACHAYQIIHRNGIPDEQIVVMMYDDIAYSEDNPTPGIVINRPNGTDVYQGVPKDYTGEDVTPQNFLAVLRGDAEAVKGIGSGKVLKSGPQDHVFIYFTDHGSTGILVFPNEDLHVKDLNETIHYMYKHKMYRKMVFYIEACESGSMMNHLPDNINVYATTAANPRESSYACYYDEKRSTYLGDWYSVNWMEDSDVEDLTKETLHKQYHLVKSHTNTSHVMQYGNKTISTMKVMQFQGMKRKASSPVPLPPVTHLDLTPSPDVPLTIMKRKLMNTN
The conditions noted are these: SILAC H/L. How it is done: as §1, §2, §3, §4, §5

Consider `C#CCNN.Cl` [probe 1, prop-2-yn-1-ylhydrazine hydrochloride], for which the enrichment ratioavg is 20 in experiment [1] (probe 1 3 mM 0.5 h vs probe 3); 20 in experiment [2] (probe 1 3 mM 0.5 h vs probe 3); 20 in experiment [3] (probe 1 3 mM 0.5 h vs probe 3); 20 on LGMN Legumain (Q99538) (probe 1 3 mM 0.5 h vs probe 3, HEK293T). Also, the competition ratioavg in experiment [1] (probe 1 vs probe 1+10x probe 3) is given as 9; in experiment [2] (probe 1 vs probe 1+10x probe 3) it was 6; in experiment [3] (probe 1 vs probe 1+10x probe 3) it was 5; on LGMN Legumain (Q99538) (probe 1 vs probe 1+10x probe 3, HEK293T), 18.

Consider `C#CCCNC(=O)c1ccc(NN)cc1.Cl` [probe 2, N-(but-3-yn-1-yl)-4-hydrazinylbenzamide hydrochloride], for which the enrichment ratioavg in experiment [1] (probe 2 1 mM 0.5 h vs probe 4) is 20; in experiment [2] (probe 2 1 mM 0.5 h vs probe 4), 15; in experiment [3] (probe 2 1 mM 0.5 h vs probe 4), 20; at LGMN Legumain (Q99538) (probe 2 1 mM 0.5 h vs probe 4, MDA-MB-231) it was 20. Besides, the competition ratioavg in experiment [1] (probe 2 vs probe 2+10x probe 4) is listed as 13; in experiment [2] (probe 2 vs probe 2+10x probe 4), 16; in experiment [3] (probe 2 vs probe 2+10x probe 4), 6; on LGMN Legumain (Q99538) (probe 2 vs probe 2+10x probe 4, MDA-MB-231) it was 4.
